# Experimental data as given in patent publication US10227362B2 (priority 2015, dated 2019).
# Tested on: Mycobacterium bovis BCG strain TMC1019 (ATCC35737)
# Experiment: microbe, parasite or virus in culture
# Assay type: cell-based
# Settings: Mycobacterium tuberculosis variant bovis BCG, 24 h, read-out: M. bovis ATCC35737 (ug/mL)
row,SMILES,MIC [µg/mL]
1,"C[C@]1(CN2CCc3nc(-c4cc(F)cc(Cl)c4)ccc3C2)Cn2cc([N+](=O)[O-])nc2O1 [Compound 21, (S)-2-((2-(3-Chloro-5-fluorophenyl)-7,8-dihydro-1,6-naphthyridin-6(5H)-yl)methyl)-2-methyl-6-nitro-2,3-dihydroimidazo[2,1-b]oxazole]",< 1
2,"C[C@]1(CN2CCc3nc(C4CCCCC4)ccc3C2)Cn2cc([N+](=O)[O-])nc2O1 [Compound 59, (S)-2-((2-Cyclohexyl-7,8-dihydro-1,6-naphthyridin-6(5H)-yl)methyl)-2-methyl-6-nitro-2,3-dihydroimidazo[2,1-b]oxazole]",< 1
3,"C[C@]1(CN2CCc3nc(-c4cccc(Cl)c4F)ccc3C2)Cn2cc([N+](=O)[O-])nc2O1 [Compound 19, (S)-2-((2-(3-Chloro-2-fluorophenyl)-7,8-dihydro-1,6-naphthyridin-6(5H)-yl)methyl)-2-methyl-6-nitro-2,3-dihydroimidazo[2,1-b]oxazole]",< 1
4,"C[C@]1(CN2CCc3nc(-c4cc(F)ccc4Cl)ccc3C2)Cn2cc([N+](=O)[O-])nc2O1 [Compound 22, (S)-2-((2-(2-Chloro-5-fluorophenyl)-7,8-dihydro-1,6-naphthyridin-6(5H)-yl)methyl)-2-methyl-6-nitro-2,3-dihydroimidazo[2,1-b]oxazole]",< 1
5,"C[C@]1(CN2CCc3nc(N4CCCCC4)ccc3C2)Cn2cc([N+](=O)[O-])nc2O1 [Compound 28, (S)-2-Methyl-6-nitro-2-((2-(piperidin-1-yl)-7,8-dihydro-1,6-naphthyridin-6(5H)-yl)methyl)-2,3-dihydroimidazo[2,1-b]oxazole]",< 1
6,"C[C@]1(CN2CCc3nc(-c4ccc(F)c(Cl)c4)ccc3C2)Cn2cc([N+](=O)[O-])nc2O1 [Compound 18, (S)-2-((2-(3-Chloro-4-fluorophenyl)-7,8-dihydro-1,6-naphthyridin-6(5H)-yl)methyl)-2-methyl-6-nitro-2,3-dihydroimidazo[2,1-b]oxazole]",< 1
7,"C[C@]1(CN2Cc3nc(-c4cc(F)c(F)cc4F)sc3C2)Cn2cc([N+](=O)[O-])nc2O1 [Compound 83, (S)-2-Methyl-6-nitro-2-((2-(2,4,5-trifluorophenyl)-4H-pyrrolo[3,4-d]thiazol-5(6H)-yl)methyl)-2,3-dihydroimidazo[2,1-b]oxazole]",< 1
8,"C[C@]1(CN2Cc3nc(-c4cc(F)c(F)cc4F)oc3C2)Cn2cc([N+](=O)[O-])nc2O1 [Compound 94, (S)-5-((2-Methyl-6-nitro-2,3-dihydroimidazo[2,1-b]oxazol-2-yl)methyl)-2-(2,4,5-trifluorophenyl)-5,6-dihydro-4H-pyrrolo[3,4-d]oxazole]",< 1
9,"C[C@]1(CN2CCc3nc(-c4ccc(Cl)cc4F)ccc3C2)Cn2cc([N+](=O)[O-])nc2O1 [Compound 23, (S)-2-((2-(4-Chloro-2-fluorophenyl)-7,8-dihydro-1,6-naphthyridin-6(5H)-yl)methyl)-2-methyl-6-nitro-2,3-dihydroimidazo[2,1-b]oxazole]",< 1
10,"C[C@]1(CN2CCc3nc(-c4ccsc4Cl)ccc3C2)Cn2cc([N+](=O)[O-])nc2O1 [Compound 53, (S)-2-((2-(2-Chlorothiophen-3-yl)-7,8-dihydro-1,6-naphthyridin-6(5H)-yl)methyl)-2-methyl-6-nitro-2,3-dihydroimidazo[2,1-b]oxazole]",< 1
11,"C[C@]1(CN2Cc3nc(-c4ccc(OC(F)(F)F)cc4)sc3C2)Cn2cc([N+](=O)[O-])nc2O1 [Compound 73, (S)-2-Methyl-6-nitro-2-((2-(4-(trifluoromethoxy)phenyl)-4H-pyrrolo[3,4-d]thiazol-5(6H)-yl)methyl)-2,3-dihydroimidazo[2,1-b]oxazole]",1 to 32
12,"C[C@]1(CN2CCc3oc(-c4ccc(F)cc4)cc3C2)Cn2cc([N+](=O)[O-])nc2O1 [Compound 64, (S)-2-(4-Fluorophenyl)-5-((2-methyl-6-nitro-2,3-dihydroimidazo[2,1-b]oxazol-2-yl)methyl)-4,5,6,7-tetrahydrofuro[3,2-c]pyridine]",< 1
13,"C[C@]1(CN2Cc3nc(-c4ccc(F)c(F)c4)oc3C2)Cn2cc([N+](=O)[O-])nc2O1 [Compound 90, (S)-2-(3,4-Difluorophenyl)-5-((2-methyl-6-nitro-2,3-dihydroimidazo[2,1-b]oxazol-2-yl)methyl)-5,6-dihydro-4H-pyrrolo[3,4-d]oxazole]",< 1
14,"C[C@]1(CN2CCc3nc(Nc4ccc(F)cc4)ccc3C2)Cn2cc([N+](=O)[O-])nc2O1 [Compound 33, (S)—N-(4-Fluorophenyl)-6-((2-methyl-6-nitro-2,3-dihydroimidazo[2,1-b]oxazol-2-yl)methyl)-5,6,7,8-tetrahydro-1,6-naphthyridin-2-amine]",< 1
15,"C[C@]1(Cn2cc3nc(-c4ccc(F)cc4)sc3c2)Cn2cc([N+](=O)[O-])nc2O1 [Compound 75, (S)-2-((2-(4-Fluorophenyl)-5H-pyrrolo[3,4-d]thiazol-5-yl)methyl)-2-methyl-6-nitro-2,3-dihydroimidazo[2,1-b]oxazole]",1 to 32
16,"C[C@]1(CN2CCc3nc(-c4cccc(F)c4F)ccc3C2)Cn2cc([N+](=O)[O-])nc2O1 [Compound 16, (S)-2-((2-(2,3-Difluorophenyl)-7,8-dihydro-1,6-naphthyridin-6(5H)-yl)methyl)-2-methyl-6-nitro-2,3-dihydroimidazo[2,1-b]oxazole]",< 1
17,"C[C@]1(CN2CCc3nc(-c4ccc(OC(F)(F)F)c(F)c4)ccc3C2)Cn2cc([N+](=O)[O-])nc2O1 [Compound 11, (S)-2-((2-(3-Fluoro-4-(trifluoromethoxy)phenyl)-7,8-dihydro-1,6-naphthyridin-6(5H)-yl)methyl)-2-methyl-6-nitro-2,3-dihydroimidazo[2,1-b]oxazole]",1 to 32
18,"C[C@]1(CN2CCc3nc(-c4cc(F)ccc4F)ccc3C2)Cn2cc([N+](=O)[O-])nc2O1 [Compound 17, (S)-2-((2-(2,5-Difluorophenyl)-7,8-dihydro-1,6-naphthyridin-6(5H)-yl)methyl)-2-methyl-6-nitro-2,3-dihydroimidazo[2,1-b]oxazole]",< 1
19,"C[C@]1(CN2CCc3nc(-c4cc(F)cc(F)c4)ncc3C2)Cn2cc([N+](=O)[O-])nc2O1 [Compound 48, (S)-2-((2-(3,5-Difluorophenyl)-7,8-dihydropyrido[4,3-d]pyrimidin-6(5H)-yl)methyl)-2-methyl-6-nitro-2,3-dihydroimidazo[2,1-b]oxazole]",< 1
20,"C[C@]1(CN2CCc3nc(C4CC4)ccc3C2)Cn2cc([N+](=O)[O-])nc2O1 [Compound 26, (S)-2-((2-Cyclopropyl-7,8-dihydro-1,6-naphthyridin-6(5H)-yl)methyl)-2-methyl-6-nitro-2,3-dihydroimidazo[2,1-b]oxazole]",< 1
21,"C[C@]1(CN2CCc3nc(-c4cc(Cl)ccc4F)ccc3C2)Cn2cc([N+](=O)[O-])nc2O1 [Compound 15, (S)-2-((2-(5-Chloro-2-fluorophenyl)-7,8-dihydro-1,6-naphthyridin-6(5H)-yl)methyl)-2-methyl-6-nitro-2,3-dihydroimidazo[2,1-b]oxazole]",< 1
